Test results from patent US9526713B2, “Use of dencichine in preparation of drug for treating thrombocytopenia” (KUNMING SHENGHUO PHARMACEUTICAL (GROUP) CO., LTD., priority 2013, dated 2016).
Read-outs that look alike come from different tables or passages of the source.

Key:
[1] = Organ index of rats suffering thrombopenia induced by carboplatin; assay type: in vivo, Wistar rats
Description: (§1) 81 rats are prepared and randomly divided into eight groups: • blank control group, • high-dose group A (4 mg/kg, intraperitoneal injection, non modeling), • model group (40 mg/kg, tail vein injection), • interleukin-11 group (260 μg/kg, subcutaneous injection), • high dose group B (4 mg/kg, intraperitoneal injection, modeling), • high dose group (4 mg/kg, intraperitoneal injection), • middle dose group (1 mg/kg, intraperitoneal injection), and • low dose group (0.25 mg/kg, intraperitoneal injection),
(§2) Thereafter, all animals, except for those of blank group and high-dose group A, are individually injected with carboplatin (40 mg/kg) for modeling, and followed by successive administration for 15 days. During these 15 days, the rats of high-dose group A and high dose group B are stopped from administration, and taken blood from the tail on 5th day, 10th day and 15th day after the modeling respectively for detecting hematological indices. After 15th day of modeling, carboplatin (40 mg/kg) is injected again for a second modeling, and all the groups take successive administration according to the foregoing method, once a day for successive 10 days. Before each hematological indices detection, animals are weighed respectively. Taking the tails' blood of rats on 5th day after the second injection of carboplatin for detecting hematological indices, and taking the tails' blood of rats on 10th day after the second injection of carboplatin for detecting the indices of hematology, reticulocytes and coagulation; and weighing animals and killing them; and weighing liver, thymus, spleen and adrenal gland taken from the dead rats, and calculating out viscera indices; further taking out marrow for doing pathological examination.

[2] = tested on: rats suffering thrombopenia induced by carboplatin; test: Platelet count of rats suffering thrombopenia induced by multiple injections of carboplatin; assay type: in vivo, Wistar rats; conditions: for increase of platelet count compared with the model group: first injection of carboplatin for 10 days
Description: as §1
wherein, the Model group has 11 rats, and the other groups has 10 rats respectively. Before the experiment, the animals are asked to adapt the environment for 2 days, and then blood is taken from their tails for detecting hematological index.
After administration for 10 days, blood is taken from tails of rats from blank control group, high-dose group A, and positive drug group respectively for detecting hematological index.
as §2

female mouse = conditions: cited from earlier work
ITP model mice = assay type: in vivo, BALB/C mice
Description: Health BALB/C mice (body weight 18˜22 g) are randomly divided into six groups with 12 mice for each group:
Except the normal group, the mice of the remain five groups are injected with anti-mouse platelet serum (APS) of the guinea pig with a dose of 100 μl/20 g body weight, via intraperitoneal injection, on the 1st, 3rd, 5th, 7th, 9th, 11th and 13th day of the experiment.
The mice of each group are given intragastric administration from the first day. The mice of the dencichine high dose, middle-dose and low dose groups are given intragastric administration at […] respectively. The mice of the prednisone acetate group are given intragastric administration of suspension of prednisone acetate at 5 mg/(kg·d). The mice of other groups are given intragastric administration of same volumetric of normal saline at 0.2 ml/20 g body weight. Intragastric administration for once each day, and continuous administration for 14 days.
20 μl Blood was collected from orbital veins of each mouse of each group before Modeling and on 14th test day respectively, and dropped into anticoagulative tubes, then platelet count was detected by an automated blood analyzers.

[3] = tested on: rats with thrombocytopenia caused by carboplatin; test: Platelet count of rats with thrombocytopenia caused by carboplatin, different prophylactic administration time; assay type: in vivo, rat
[4] = high dose group A, 4 mg/kg i.p., non modeling
[5] = high dose group B, 4 mg/kg i.p., prophylactic, modeling
[6] = low dose group, 0.25 mg/kg i.p.
[7] = middle dose group, 1 mg/kg i.p.

N[C@@H](CNC(=O)C(=O)O)C(=O)O [Dencichine, β-N-oxalyl-L-α, β-diaminopropionic acid]
organ index, Adrenal gland [1, 4]: 0.03 ± 0.004 g/100 g body weight | organ index, Liver [1, 4]: 3.33 ± 0.22 g/100 g body weight | organ index, Spleen [1, 4]: 0.28 ± 0.05 g/100 g body weight | organ index, Thymus gland [1, 4]: 0.18 ± 0.08 g/100 g body weight | organ index, Adrenal gland [1, 5]: 0.03 ± 0.01 g/100 g body weight | organ index, Liver [1, 5]: 3.70 ± 0.31 g/100 g body weight | organ index, Spleen [1, 5]: 0.36 ± 0.10 g/100 g body weight | organ index, Thymus gland [1, 5]: 0.10 ± 0.03 g/100 g body weight | organ index, Adrenal gland ([1]; high dose group, 4 mg/kg i.p.): 0.03 ± 0.004 g/100 g body weight | organ index, Liver ([1]; high dose group, 4 mg/kg i.p.): 3.61 ± 0.46 g/100 g body weight | organ index, Spleen ([1]; high dose group, 4 mg/kg i.p.): 0.32 ± 0.11 g/100 g body weight | organ index, Thymus gland ([1]; high dose group, 4 mg/kg i.p.): 0.11 ± 0.02 g/100 g body weight | organ index, Adrenal gland [1, 6]: 0.03 ± 0.004 g/100 g body weight | organ index, Liver [1, 6]: 3.71 ± 0.21 g/100 g body weight | organ index, Spleen [1, 6]: 0.35 ± 0.06 g/100 g body weight | organ index, Thymus gland [1, 6]: 0.11 ± 0.02 g/100 g body weight | organ index, Adrenal gland [1, 7]: 0.03 ± 0.01 g/100 g body weight | organ index, Liver [1, 7]: 3.50 ± 0.52 g/100 g body weight | organ index, Spleen [1, 7]: 0.32 ± 0.10 g/100 g body weight | organ index, Thymus gland [1, 7]: 0.09 ± 0.04 g/100 g body weight | platelet count ([2]; high dose group A, 4 mg/kg i.p., non modeling, 5th day after first injection of carboplatin): 1113.8 ± 356.97 ×10^9/L | platelet count ([2]; high dose group A, 4 mg/kg i.p., non modeling, 5th day after second injection of carboplatin): 1163.3 ± 233.2 ×10^9/L | platelet count ([2]; high dose group A, 4 mg/kg i.p., non modeling, 10th day after first injection of carboplatin): 638.5 ± 207.9 ×10^9/L | platelet count ([2]; high dose group A, 4 mg/kg i.p., non modeling, 10th day after second injection of carboplatin): 873 ± 147.2 ×10^9/L | platelet count ([2]; high dose group A, 4 mg/kg i.p., non modeling, 15th day after first injection of carboplatin): 799.5 ± 349.8 ×10^9/L | platelet count ([2]; high dose group A, 4 mg/kg i.p., non modeling, before experiment): 625.5 ± 109.3 ×10^9/L | platelet count ([2]; high dose group A, 4 mg/kg i.p., non modeling, prophylactic administration for 10 days): 586.9 ± 139.67 ×10^9/L | platelet count ([2]; high dose group B, 4 mg/kg i.p., prophylactic, modeling, 5th day after first injection of carboplatin): 392.7 ± 116.9 ×10^9/L | platelet count ([2]; high dose group B, 4 mg/kg i.p., prophylactic, modeling, 5th day after second injection of carboplatin): 682.1 ± 266.4 ×10^9/L | platelet count ([2]; high dose group B, 4 mg/kg i.p., prophylactic, modeling, 10th day after first injection of carboplatin): 142.6 ± 78.6 ×10^9/L | platelet count ([2]; high dose group B, 4 mg/kg i.p., prophylactic, modeling, 10th day after second injection of carboplatin): 150.5 ± 99.9 ×10^9/L | platelet count ([2]; high dose group B, 4 mg/kg i.p., prophylactic, modeling, 15th day after first injection of carboplatin): 649.8 ± 234.1 ×10^9/L | platelet count ([2]; high dose group B, 4 mg/kg i.p., prophylactic, modeling, before experiment): 619.7 ± 106.81 ×10^9/L | platelet count ([2]; high dose group, 4 mg/kg i.p., 5th day after first injection of carboplatin): 302.2 ± 62.2 ×10^9/L | platelet count ([2]; high dose group, 4 mg/kg i.p., 5th day after second injection of carboplatin): 758.9 ± 231.2 ×10^9/L | platelet count ([2]; high dose group, 4 mg/kg i.p., 10th day after first injection of carboplatin): 186.9 ± 81.0 ×10^9/L | platelet count ([2]; high dose group, 4 mg/kg i.p., 10th day after second injection of carboplatin): 133.8 ± 126.3 ×10^9/L | platelet count ([2]; high dose group, 4 mg/kg i.p., 15th day after first injection of carboplatin): 1038.3 ± 237.1 ×10^9/L | platelet count ([2]; high dose group, 4 mg/kg i.p., before experiment): 625.7 ± 127.04 ×10^9/L | increase of platelet count compared with the model group ([2]; high-dose group (4 mg/kg i.p.)): 27.1% | platelet count ([2]; low dose group, 0.25 mg/kg i.p., 5th day after first injection of carboplatin): 331.4 ± 76.3 ×10^9/L | platelet count ([2]; low dose group, 0.25 mg/kg i.p., 5th day after second injection of carboplatin): 712.8 ± 324.7 ×10^9/L | platelet count ([2]; low dose group, 0.25 mg/kg i.p., 10th day after first injection of carboplatin): 157.8 ± 49.3 ×10^9/L | platelet count ([2]; low dose group, 0.25 mg/kg i.p., 10th day after second injection of carboplatin): 133 ± 83.661 ×10^9/L | platelet count ([2]; low dose group, 0.25 mg/kg i.p., 15th day after first injection of carboplatin): 956.8 ± 266.5 ×10^9/L | platelet count ([2]; low dose group, 0.25 mg/kg i.p., before experiment): 611.5 ± 90.19 ×10^9/L | platelet count ([2]; middle dose group, 1 mg/kg i.p., 5th day after first injection of carboplatin): 359 ± 102.4 ×10^9/L | platelet count ([2]; middle dose group, 1 mg/kg i.p., 5th day after second injection of carboplatin): 620.2 ± 226.1 ×10^9/L | platelet count ([2]; middle dose group, 1 mg/kg i.p., 10th day after first injection of carboplatin): 197.7 ± 78.8 ×10^9/L | platelet count ([2]; middle dose group, 1 mg/kg i.p., 10th day after second injection of carboplatin): 70.386 ± 36.845 ×10^9/L | platelet count ([2]; middle dose group, 1 mg/kg i.p., 15th day after first injection of carboplatin): 1043.4 ± 288.1 ×10^9/L | platelet count ([2]; middle dose group, 1 mg/kg i.p., before experiment): 623 ± 98 ×10^9/L | increase of platelet count compared with the model group ([2]; middle-dose group (1 mg/kg i.p.)): 34.4% | increase of the platelet count (female mouse; 1 mg in 0.5 ml Ringer-Locke solution, injected into abdominal cavity of a female mouse): 30% | effect on the hemostasis and increase of platelet count (female mouse; Zhao Guoqiang et al., 1984): significant effect | platelet count (ITP model mice; high dose 6 mg/kg intragastric, Before Modeling): 751.4 ± 114.3 ×10^9/L | platelet count (ITP model mice; high dose 6 mg/kg intragastric, Day 14): 542.1 ± 95.4 ×10^9/L | platelet count (ITP model mice; low dose 1.5 mg/kg intragastric, Before Modeling): 745.1 ± 139.6 ×10^9/L | platelet count (ITP model mice; low dose 1.5 mg/kg intragastric, Day 14): 428.2 ± 75.1 ×10^9/L | platelet count (ITP model mice; middle dose 3 mg/kg intragastric, Before Modeling): 749.2 ± 147.5 ×10^9/L | platelet count (ITP model mice; middle dose 3 mg/kg intragastric, Day 14): 484.8 ± 78.4 ×10^9/L | platelet count compared with that of model group ([3]; prophylactic administration for 3 days): no significant difference | platelet count ([3]; prophylactic administration for 3 days, after prophylactic administration): 656.3 ± 67.35 ×10^9/L | platelet count ([3]; prophylactic administration for 3 days, initial value): 717.5 ± 276.94 ×10^9/L | platelet count ([3]; prophylactic administration for 3 days, injection of carboplatin for 10 days): 110.2 ± 40.43 ×10^9/L | platelet count compared with that of model group ([3]; prophylactic administration for 5 days and 7 days): increase the platelet count | platelet count ([3]; prophylactic administration for 5 days, after prophylactic administration): 773.2 ± 142.02 ×10^9/L | platelet count ([3]; prophylactic administration for 5 days, initial value): 736.2 ± 182.37 ×10^9/L | platelet count ([3]; prophylactic administration for 5 days, injection of carboplatin for 10 days): 176.2 ± 28.34 ×10^9/L | platelet count ([3]; prophylactic administration for 7 days, after prophylactic administration): 772.8 ± 70.63 ×10^9/L | platelet count ([3]; prophylactic administration for 7 days, initial value): 743.7 ± 226.92 ×10^9/L | platelet count ([3]; prophylactic administration for 7 days, injection of carboplatin for 10 days): 166.2 ± 18.20 ×10^9/L
